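Method: 48-hour compound exposure of cells in 96-well plates, five concentrations, linear interpolation of endpoints. TGI: concentration producing complete growth inhibition.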
Columns and labels:
Assay in all cases: DTP human tumour cell line panel, 48 h
[1] = tested on: CAKI-1 renal
[2] = tested on: SK-MEL-2 melanoma
[3] = tested on: LOX IMVI melanoma
[4] = tested on: SNB-75 CNS
[5] = tested on: BT-549 breast
[6] = tested on: T-47D breast
[7] = tested on: NCI-H522 lung
[8] = tested on: HS 578T breast
[9] = tested on: IGROV1 ovarian
[10] = tested on: NCI-H226 lung
[11] = tested on: KM12 colon
[12] = tested on: UACC-257 melanoma
[13] = tested on: NCI-H23 lung
[14] = tested on: UO-31 renal
[15] = tested on: SK-MEL-28 melanoma
[16] = tested on: M14 melanoma
[17] = tested on: A498 renal
[18] = tested on: HOP-62 NSCLC
[19] = tested on: UACC-62 melanoma
[20] = tested on: HCT-15 colon
[21] = tested on: OVCAR-4 ovarian
[22] = tested on: HCC-2998 colon
[23] = tested on: 786-0 renal
[24] = tested on: MALME-3M melanoma
[25] = tested on: NCI-H460 lung
[26] = tested on: A549 NSCLC
[27] = tested on: SK-MEL-5 melanoma
[28] = tested on: SW-620 colon
[29] = tested on: OVCAR-3 ovarian
[30] = tested on: U251 CNS
[31] = tested on: SN12C renal
[32] = tested on: EKVX NSCLC
[33] = tested on: OVCAR-8 ovarian
[34] = tested on: MOLT-4 leukemia
[35] = tested on: NCI/ADR-RES ovarian
[36] = tested on: RXF 393 renal
[37] = tested on: SF-295 CNS
[38] = tested on: SF-268 CNS
[39] = tested on: OVCAR-5 ovarian
[40] = tested on: PC-3 prostate
[41] = tested on: MDA-MB-435
[42] = tested on: ACHN renal
[43] = tested on: SNB-19 CNS
[44] = tested on: TK-10 renal
[45] = tested on: DU-145 prostate
[46] = tested on: MDA-MB-231 breast
[47] = tested on: CCRF-CEM leukemia
[48] = tested on: MDA-N
[49] = tested on: HT29 colon
[50] = tested on: K-562 leukemia
[51] = tested on: HCT-116 colon
[52] = tested on: SR leukemia
[53] = tested on: HOP-92 NSCLC
[54] = tested on: SK-OV-3 ovarian
[55] = tested on: MCF7 breast
[56] = tested on: RPMI-8226 leukemia
[57] = tested on: COLO 205 colon

CC(C)=CC1C(C(=O)OCc2cc3c(cc2Cl)OCO3)C1(C)C (stereo not given)
TGI [1]: > 100 µM | TGI [2]: 23.1 µM | TGI [3]: 33.5 µM | TGI [4]: > 100 µM | TGI [5]: > 100 µM | TGI [6]: > 100 µM | TGI [7]: 44.2 µM | TGI [8]: > 100 µM | TGI [9]: 87.5 µM | TGI [10]: > 100 µM | TGI [11]: > 100 µM | TGI [12]: 48.1 µM | TGI [13]: > 100 µM | TGI [14]: > 100 µM | TGI [15]: > 100 µM | TGI [16]: > 100 µM | TGI [17]: > 100 µM | TGI [18]: > 100 µM | TGI [19]: > 100 µM | TGI [20]: > 100 µM | TGI [21]: > 100 µM | TGI [22]: 58 µM | TGI [23]: > 100 µM | TGI [24]: 49 µM | TGI [25]: > 100 µM | TGI [26]: > 100 µM | TGI [27]: 34.2 µM | TGI [28]: > 100 µM | TGI [29]: > 100 µM | TGI [30]: 35.1 µM | TGI [31]: > 100 µM | TGI [32]: 80 µM | TGI [33]: > 100 µM | TGI [34]: 31.5 µM | TGI [35]: > 100 µM | TGI [36]: > 100 µM | TGI [37]: > 100 µM | TGI [38]: > 100 µM | TGI [39]: > 100 µM | TGI [40]: 36 µM | TGI [41]: > 100 µM | TGI [42]: > 100 µM | TGI [43]: > 100 µM | TGI [44]: > 100 µM | TGI [45]: > 100 µM | TGI [46]: 86.6 µM | TGI [47]: > 100 µM | TGI [48]: 81.5 µM | TGI [49]: > 100 µM | TGI [50]: > 100 µM | TGI [51]: > 100 µM | TGI [52]: 33.4 µM | TGI [53]: > 100 µM

O=[N+]([O-])/C=C/c1cc(Cl)c(/C=C/[N+](=O)[O-])cc1Cl
TGI [2]: 12.8 µM | TGI [3]: 2.99 µM | TGI [4]: 29.6 µM | TGI [5]: 3.25 µM | TGI [6]: 6.38 µM | TGI [8]: 8.25 µM | TGI [9]: 8.62 µM | TGI [54]: > 56.6 µM | TGI [10]: 5.4 µM | TGI [11]: > 24.6 µM | TGI [12]: 5.25 µM | TGI [13]: 22.5 µM | TGI [16]: 4.37 µM | TGI [17]: 14.2 µM | TGI [18]: 31.8 µM | TGI [19]: 4.34 µM | TGI [20]: 4.19 µM | TGI [55]: > 33.2 µM | TGI [22]: 3.99 µM | TGI [25]: 52.9 µM | TGI [26]: 36.1 µM | TGI [27]: 14.9 µM | TGI [28]: 6.06 µM | TGI [29]: 5.04 µM | TGI [56]: 3.99 µM | TGI [32]: 5.02 µM | TGI [35]: > 25 µM | TGI [36]: 3.14 µM | TGI [37]: 25 µM | TGI [38]: 16.5 µM | TGI [57]: 4.5 µM | TGI [40]: 9.15 µM | TGI [41]: 4.17 µM | TGI [42]: 2.97 µM | TGI [43]: 6.91 µM | TGI [44]: 2.9 µM | TGI [45]: 7.96 µM | TGI [47]: > 100 µM | TGI [48]: 8.19 µM | TGI [49]: 5.78 µM | TGI [51]: 7.1 µM | TGI [53]: 6.77 µM

— PubChem BioAssay (NCI)
